Source: US10632116B2, “Combinations of serotonin receptor agonists for treatment of movement disorders” (Contera Pharma A/S, priority 2010, dated 2020)

Tests used:
[1] = tested on: 6-OHDA unilateral lesion model rats; assay: Forepaw adjusting steps (FAS), 6-OHDA induced akinesia; assay type: in vivo, rat; conditions: first study; acute L-DOPA 3 mg/kg with 15 mg/kg benserazide s.c.
Description: Animals: 60 Sprague-Dawley male rats (290 g-340 g, bought from SLAC Laboratory Animal Co. Ltd at an age of 8-10 weeks). Rats were housed in groups of n=2/cage. […] Animal housing and testing rooms were maintained under controlled environmental conditions and were within close proximity of each other. Animal housing rooms were on a 12-hour light-dark cycle with lights on at 6:00 AM and maintained at 70° F./21° C. (range: 68-72° F./20-22° C.) with a humidity range of 20-40%. Testing rooms were maintained at 68-72° F. with a humidity range of 20-40%.
Dopamine (DA)-denervating lesions were performed by unilateral injection of 6-OHDA in the median forebrain bundle containing the ascending nigrostraital pathway. Rats were anesthetized with pentobarbital sodium 40 mg/kg (i.p.) and positioned in a stereotactic frame. 6-OHDA was injected at the following coordinates (in mm) relative to bregma and dural surface: Tooth bar: −3.3 mm, AP: −1.8 mm, ML: −2.0 mm, DV: −8.6 mm (18 μg/6 μl 6-OHDA). […]
After recovery from surgery, rats with nearly complete (>90%) lesions were selected by means of an apomorphin-induced rotation test. […] Quantification of the rotational response was accomplished in rats by counting the turns in 30 minutes. […]
Each baseline adjusting step test consisted of two subtests of the day and the mean of the two subtests were calculated as baseline. […]

[2] = tested on: unilaterally 6-OHDA-lesioned rats; assay: L-DOPA induced AIMs and drugs screening test (6-OHDA rat model); assay type: in vivo
Description: Administration of L-DOPA to unilaterally 6-OHDA-lesioned rats induces abnormal involuntary movements (AIMs). These are axial, limb and oral movements that occur only on the body side that is ipsilateral to the lesion.
Animals: 90 experimentally-naïve, male, Sprague-Dawley rats at body weight of 200 to 250 g from Shanghai SLAC Co. Ltd. arrive at the laboratory at least 1 week prior to behavioural testing. Rats are housed in groups of n=2/cage. […] Animal housing and testing rooms are maintained under controlled environmental conditions and are within close proximity of each other. Animal housing rooms are on a 12-hour light-dark cycle with lights on at 6:00 AM and maintained at 70° F./21° C. (range: 68-72° F./20-22° C.) with a humidity range of 20-40%. Testing rooms are maintained at 68-72° F. with a humidity range of 20-40%.
DA-denervating lesions are performed by unilateral injection of 6-OHDA in the ascending nigrostriatal pathway. Rats were anesthetized with pentobarbital sodium 40 mg/kg (i.p.) and positioned in a stereotactic frame. 6-OHDA is injected into the right ascending DA bundle at the following coordinates (in mm) relative to bregma and dural surface: (1) toothbar position −2.3, A=−4.4, L=1.2, V=7.8, (7.5 ug 6-OHDA), (2) toothbar position+3.4, A=−4.0, L=0.8, V=8.0 mm (6 ug 6-OHDA). The neurotoxin injections are performed at a rate of 1 ul/min, and the injection cannula is left in place for an additional 2-3 min thereafter. Two weeks after surgery rats with nearly complete (>90%) lesions are selected by means of an amphetamine-induced rotation test. The animals are placed in plastic Perspex bowls (30 cm in diameter) and the rotational behavior (360° turns) is recorded by an automated rotometer for 90 min after the i.p. injection of 2.5 mg/kg d-amphetamine sulphate. […] Animals are then allocated into two well-matched sub-groups (according to the amphetamine rotation) and receive daily treatment as described below.
L-DOPA methyl ester (Sigma-Aldrich, Germany) is given at the dose of 6 mg/kg/day, combined with 15 mg/kg/day of benserazide HCl (Sigma-Aldrich, Germany). […]

Parkinson's disease = conditions: doses 10-60 mg/day; cited from earlier work
naïve rats = assay: Open field test (Example VI, locomotor activity); assay type: in vivo, rat; conditions: FIG. 3; pentobarbital 15 mg/kg i.p., 30 min before test; positive control
Description: (§1) The present study describes the evaluation of zolmitriptan and buspirone in the 6-OHDA rat model. Using this study, a treatment with combination of compounds according to the present invention can be evaluated for their sedative effects, and/or their effects on the motor performance compared to sedated rats and to rats which only had saline injections.
The open field test was used to determine the effects of drug on locomotor activity. Rats were put in open-field chambers (dimensions 40 cm×40 cm) 30 minutes after dosing. After a 15 minutes habituation, locomotion were recorded and analysed by Enthovision Video Tracking Software (Noldus Information Technology, Netherlands) for 60 minutes. All locomotor activities were done during dark phase and to eliminate olfactory cues, the arena was thoroughly cleaned with 70% v/v ethanol between each test.
(§2) Vehicle: Saline, i.p., 30 min before test, n=10
(§3) Positive control: Pentobarbital 15 mg/kg, i.p. 30 min before test, n=10 […]
Statistical analysis: The total locomotor activity is expressed as total moved distance (cm) and average velocity (cm/s) during 60 minutes. The data were analysed using One-Way ANOVA and the Tukey post-hoc test. The locomotor activity in six time point is expressed as moved distance (cm) and average velocity (cm/s) every 10 minutes. The data were analysed using One-Way ANOVA and the Tukey post-hoc test in each time point.

Sprague-Dawley (SD) rats = assay: Rotarod test (Example V, sedation/motor performance); assay type: in vivo, rat; conditions: FIG. 2; pentobarbital 15 mg/kg i.p., 30 min before test; positive control
Description: as §1, with “model in a study using the rotarod test.” for “model.”
In brief, the animals (30 SD male rats (180-220 g, bred in house, originally from SLAC Laboratory Animal Co. Ltd) at 9-week of age) were trained twice a day for a 3-day period. […] Each training trial was ended if the animal fell off or grips the device and spun around for two consecutive revolutions. The time that rat stayed on the Rotarod was recorded. The staying duration recorded at last training trail was used as baseline. Rats were grouped according a randomly distribution of baseline.
For the test session on the fourth day, the rats were evaluated on the Rotarod with the same setting as above at 30 min after dosing. The rats were dosed with drugs as described below. Dosing and Rotarod measurement were conducted by two scientists separately. Pentobarbital (15 mg/kg. i.p.) was used a as a positive control.
as §2, §3
The data were analyzed using One-Way ANOVA and the Tukey post-hoc test.

Huntington's disease = conditions: patient suffering from Huntington's disease; cited from earlier work
[3] = tested on: L-DOPA induced dyskinesia; conditions: cited from earlier work

N[C@@H](Cc1ccc(O)c(O)c1)C(=O)O [L-DOPA, 3,4-dihydroxyphenylalanine]
6-OHDA induced akinesia (forelimb use) [1]: alleviated 6-OHDA induced akinesia

O=C1CC2(CCCC2)CC(=O)N1CCCCN1CCN(c2ncccn2)CC1 [buspirone, 8-[4-(4-pyrimidin-2-ylpiperazin-1-yl)butyl]-8-azaspiro[4.5]decane-7,9-dione]
L-DOPA induced AIM (Total AIMs) ([2]; Example IV, FIG. 1, buspirone alone 1 mg/kg/day i.p.): only partly reduced AIM | L-DOPA induced AIM (Total AIMs) ([2]; Example VII, FIG. 4, buspirone alone 0.5 mg/kg i.p.): only partly reduced AIM | effects on Parkinson's disease or dyskinesia (Parkinson's disease): did not have any effects

CCCC(C)C1(CC)C(=O)NC(=O)NC1=O (stereo not shown) [pentobarbital]
open field test motor performance (naïve rats): significantly reduced motor performance | rotarod performance (time spent on the accelerating rod) (Sprague-Dawley (SD) rats): significantly reduced time spend on the rotarod

O=C1[C@H]2CCCC[C@H]2C(=O)N1CCCCN1CCN(c2nsc3ccccc23)CC1 [perospirone, (3 aR,7aS)-2-{4-[4-(1,2-benzisothiazol-3-yl)piperazin-1-yl]butyl}hexahydro-1H-isoindole-1,3(2H)-dione]
involuntary movement (Huntington's disease): could reduce involuntary movement

Fc1ccc(-c2cncc(CNC[C@H]3CCc4ccccc4O3)c2)cc1 [sarizotan, 1-[(2R)-3,4-dihydro-2H-chromen-2-yl]-N-([5-(4-fluorophenyl)pyridin-3-yl]-methyl)methanamine]
LID ([3]; phase 2A study and open labeled study): reduced LID | effects compared to placebo ([3]; several large phase 2b studies): no significant effects

CN(C)CCc1c[nH]c2ccc(C[C@H]3COC(=O)N3)cc12 [zolmitriptan, (S)-4-([3-[2-(dimethylamino)ethyl]-1H-indol-5-yl]methyl)-1,3-oxazolidin-2-one]
L-DOPA induced AIM (Total AIMs) ([2]; Example IV, FIG. 1, zolmitriptan alone 10 mg/kg/day): did not reduce AIM
